Measurements published in patent US20160016951A1 (Merck Patent GmbH, priority 2014, published 2016).
pIC50: −log10 of the molar value.

Target: T1, CDK8 (CDK8/CycC) (Homo sapiens, UniProt P49336)
T1 construct: purchased Invitrogen PV4402
Experiment: FRET based Lanthascreen binding competition assay
Details: 5 nM CDK8/CycC, 10 nM Alexa647-Tracer, 1% DMSO, 60 min at RT; read-out: IC50 CDK8 binding
Procedure: FRET based Lanthascreen binding competition assay: A dye-labeled ATP competitive probe served as a FRET acceptor upon binding to CDK8 labeled with a strepavidin —Eu-chelate (via abiotinylated anti His antibody). […] In case this probe was competed by an inhibitor as such a signal cannot be generated any more. The CDK8 used for this assay was a protein co-expressed with CycC.
The assay procedure for an assay in a 1536 well plate was performed according to the following: 2 μL CDK8/biotin-anti-His Ab/SA-Eu mix in Assay buffer were pipetted into the wells of a micro plate.
1 μL compound in 20 mM Hepes buffer/5% DMSO was added. The plate was shaken for 30 sec and incubated for 20 min at RT. 2 μL Alexa647-probe in assay buffer were added. The plate was shaken for 30 sec again and incubated for 60 min at RT in the dark. Then the plate was read out on a Perkin Elmer Envision (mode LANCE/TRF, excitation 340 nm emission 650 nm).

T1 sequence (P49336 whole entry): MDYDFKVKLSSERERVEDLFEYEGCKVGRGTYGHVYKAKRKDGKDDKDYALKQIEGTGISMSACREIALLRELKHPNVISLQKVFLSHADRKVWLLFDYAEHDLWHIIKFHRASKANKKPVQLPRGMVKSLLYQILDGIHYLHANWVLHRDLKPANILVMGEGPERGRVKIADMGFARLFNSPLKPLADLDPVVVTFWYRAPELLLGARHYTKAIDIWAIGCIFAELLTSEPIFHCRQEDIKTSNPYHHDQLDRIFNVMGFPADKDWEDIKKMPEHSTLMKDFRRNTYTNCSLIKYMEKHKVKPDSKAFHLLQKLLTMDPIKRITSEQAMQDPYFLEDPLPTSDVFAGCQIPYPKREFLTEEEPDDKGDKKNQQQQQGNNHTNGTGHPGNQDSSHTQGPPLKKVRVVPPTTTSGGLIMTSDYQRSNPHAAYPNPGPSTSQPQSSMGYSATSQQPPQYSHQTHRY
T1 sequence (P24863 whole entry partner): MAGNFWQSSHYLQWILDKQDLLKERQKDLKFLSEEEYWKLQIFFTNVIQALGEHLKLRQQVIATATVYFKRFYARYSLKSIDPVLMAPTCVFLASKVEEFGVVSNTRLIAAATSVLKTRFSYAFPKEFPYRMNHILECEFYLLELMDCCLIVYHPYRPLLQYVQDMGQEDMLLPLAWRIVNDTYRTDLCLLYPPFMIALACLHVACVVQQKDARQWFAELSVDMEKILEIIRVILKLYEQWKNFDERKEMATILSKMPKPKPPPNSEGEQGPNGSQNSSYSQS

Row | pIC50 | Compound
1 | 6.00 to 6.30 | Cn1cc(-c2ccc(-c3cncc4ccc(N5CCNCC5)nc34)cc2)cn1 [Compound 72, 8-(4-(1-methyl-1H-pyrazol-4-yl)phenyl)-2-(piperazin-1-yl)-1,6-naphthyridine]
2 | > 8.00 | CC(=O)NC(=O)c1ccc2cncc(-c3ccc(-c4cnn(C)c4)cc3)c2n1 [Compound 9, 8-[4-(1-Methyl-1H-pyrazol-4-yl)-phenyl]-[1,6]naphthyridine-2-carboxylic acid acetyl-amide]
3 | 7.00 to 8.00 | Nc1nccc2cc(C(=O)N3CCC[C@H]3c3ccc(Cl)cc3)ccc12 [Compound 137, (S)-(1-aminoisoquinolin-6-yl)(2-(4-chlorophenyl)pyrrolidin-1-yl)methanone]
4 | 7.00 to 8.00 | N#Cc1ccc2cncc(-c3ccc4c(c3)CS(=O)(=O)N4)c2c1 [Compound 193, 4-(2,2-dioxido-1,3-dihydrobenzo[c]isothiazol-5-yl)isoquinoline-6-carbonitrile]
5 | 6.30 to 7.00 | Cn1cc(-c2ccc(-c3cncc4ccc(C(=O)N5CCN(C(=O)OC(C)(C)C)CC5)cc34)cc2)cn1 [Compound 124, tert-butyl 4-(4-(4-(1-methyl-1H-pyrazol-4-yl)phenyl)isoquinoline-6-carbonyl)piperazine-1-carboxylate]
6 | 7.00 to 8.00 | COC1CN(C(=O)c2ccc3c(N)ncc(-c4ccc5c(cnn5C)c4)c3n2)C1 [Compound 140, (5-amino-8-(1-methyl-1H-indazol-5-yl)-1,6-naphthyridin-2-yl)(3-methoxyazetidin-1-yl)methanone]
7 | 6.30 to 7.00 | Cc1ccc2cncc(-c3ccc4c(c3)CS(=O)(=O)N4C)c2n1 [Compound 65, 1-Methyl-5-(2-methyl-1,6-naphthyridin-8-yl)-1,3-dihydrobenzo[c]isothiazole 2,2-dioxide]
8 | 7.00 to 8.00 | CN1C(=O)Cc2ccc(-c3cncc4ccc(C(=O)N5CC(F)(F)C5)cc34)cc21 [Compound 163, 6-[6-(3,3-Difluoro-azetidine-1-carbonyl)-isoquinolin-4-yl]-1-methyl-1,3-dihydro-indol-2-one]
9 | 7.00 to 8.00 | Cn1cc(-c2ccc(-c3cncc4ccc(C(=O)N5CCCC(F)(F)C5)nc34)cc2)cn1 [Compound 82, (3,3-difluoropiperidin-1-yl)(8-(4-(1-methyl-1H-pyrazol-4-yl)phenyl)-1,6-naphthyridin-2-yl)methanone]
10 | 7.00 to 8.00 | Cn1cc(-c2ccc(-c3cncc4ccc(C#N)cc34)cc2)cn1 [Compound 118, 4-(4-(1-methyl-1H-pyrazol-4-yl)phenyl)isoquinoline-6-carbonitrile]
11 | > 8.00 | CC(C)(O)Cn1cc(-c2ccc(-c3cncc4ccc(C(N)=O)cc34)cc2)cn1 [Compound 97, 4-(4-(1-(2-hydroxy-2-methylpropyl)-1H-pyrazol-4-yl)phenyl)isoquinoline-6-carboxamide]
12 | 7.00 to 8.00 | CN1C(=O)CCc2cc(-c3cncc4ccc(C(=O)N5CC(F)(F)C5)cc34)ccc21 [Compound 158, 6-[6-(3,3-Difluoro-azetidine-1-carbonyl)-isoquinolin-4-yl]-1-methyl-3,4-dihydro-1H-quinolin-2-one]
13 | 6.30 to 7.00 | COC1CN(C(=O)c2ccc3cncc(-c4ccc5c(cnn5CC(C)(C)O)c4)c3c2)C1 [Compound 132, (4-(1-(2-hydroxy-2-methylpropyl)-1H-indazol-5-yl)isoquinolin-6-yl)(3-methoxyazetidin-1-yl)methanone]
14 | 7.00 to 8.00 | Cc1nc(-c2ccc(-c3cncc4ccc(C(=O)N5CC(F)(F)C5)cc34)cc2)cn1C [Compound 175, (3,3-Difluoro-azetidin-1-yl)-{4-[4-(1,2-dimethyl-1H-imidazol-4-yl)-phenyl]-isoquinolin-6-yl}-methanone]
15 | 7.00 to 8.00 | Cn1cc(-c2ccc(-c3cncc4ccc(S(C)(=N)=O)cc34)cc2)cn1 (stereo not shown) [Compound 190, 6-[imino(methane)sulfinyl]-4-[4-(1-methyl-1H-pyrazol-4-yl)phenyl]isoquinoline]
16 | > 8.00 | Cn1cc(-c2ccc(-c3cncc4ccc(NS(=O)(=O)C5(C)CC5)cc34)cc2)cn1 [Compound 168, 1-Methyl-cyclopropanesulfonic acid {4-[4-(1-methyl-1H-pyrazol-4-yl)-phenyl]-isoquinolin-6-yl}-amide]
17 | > 8.00 | Cn1cc(-c2ccc(-c3cncc4ccc(NS(C)(=O)=O)nc34)cc2)cn1 [Compound 2, N-(8-(4-(1-Methyl-1H-pyrazol-4-yl)phenyl)-1,6-naphthyridin-2-yl)methanesulfonamide]
18 | > 8.00 | Cc1cncc2ccc(C(=O)N3CCC[C@H]3c3ccc(Br)cc3)nc12 [Compound 92, (S)-(2-(4-bromophenyl)pyrrolidin-1-yl)(8-methyl-1,6-naphthyridin-2-yl)methanone]
19 | 6.30 to 7.00 | CN(C)C(=O)c1ccc2c(N)ncc(-c3ccc4c(c3)CS(=O)(=O)N4)c2n1 [Compound 59, 5-amino-8-(2,2-dioxido-1,3-dihydrobenzo[c]isothiazol-5-yl)-N,N-dimethyl-1,6-naphthyridine-2-carboxamide]

Row | pIC50 | Compound
20 | 6.00 to 6.30 | Cn1cc(-c2ccc(-c3cncc4ccc(N5CCCCC5=O)cc34)cc2)cn1 [Compound 127, 1-{4-[4-(1-Methyl-1H-pyrazol-4-yl)-phenyl]-isoquinolin-6-yl}-piperidin-2-one]
21 | > 8.00 | COC1CN(C(=O)c2ccc3cncc(-c4ccc5nn(CC(C)(C)O)cc5c4)c3n2)C1 [Compound 33, (8-(2-(2-hydroxy-2-methylpropyl)-2H-indazol-5-yl)-1,6-naphthyridin-2-yl)(3-methoxyazetidin-1-yl)methanone]
22 | 7.00 to 8.00 | COC1CN(C(=O)c2ccc3cncc(-c4ccc5c(c4)CCC(=O)N5C)c3c2)C1 [Compound 155, 6-[6-(3-Methoxy-azetidine-1-carbonyl)-isoquinolin-4-yl]-1-methyl-3,4-dihydro-1H-quinolin-2-one]
23 | 7.00 to 8.00 | Cn1cc(-c2ccc(-c3cncc4ccc(N5CCCCS5(=O)=O)cc34)cc2)cn1 [Compound 110, 6-(1,1-Dioxo-[1,2]thiazinan-2-yl)-4-[4-(1-methyl-1H-pyrazol-4-yl)-phenyl]-isoquinoline]
24 | 7.00 to 8.00 | O=C(c1ccc2cnccc2n1)N1CCC[C@H]1c1ccccc1 [Compound 54, (S)-(1,6-naphthyridin-2-yl)(2-phenylpyrrolidin-1-yl)methanone]
25 | 7.00 to 8.00 | Cn1cc(-c2ccc(-c3cnc(N)c4ccc(C(=O)N5CCC(F)(F)C5)cc34)cc2)cn1 [Compound 196, (1-amino-4-(4-(1-methyl-1H-pyrazol-4-yl)phenyl)isoquinolin-6-yl)(3,3-difluoropyrrolidin-1-yl)methanone]
26 | 7.00 to 8.00 | COC1CN(C(=O)c2ccc3cncc(-c4ccc5c(c4)CC(=O)N5C)c3c2)C1 [Compound 159, 5-[6-(3-Methoxy-azetidine-1-carbonyl)-isoquinolin-4-yl]-1-methyl-1,3-dihydro-indol-2-one]
27 | 7.00 to 8.00 | COC1CN(C(=O)c2ccc3c(N)ncc(-c4ccc5c(c4)N(C)C(=O)C5)c3c2)C1 [Compound 173, 6-[1-Amino-6-(3-methoxy-azetidine-1-carbonyl)-isoquinolin-4-yl]-1-methyl-1,3-dihydro-indol-2-one]
28 | > 8.00 | CN1c2ccc(-c3cncc4ccc(C(=O)NC5CC5)nc34)cc2CS1(=O)=O [Compound 21, 8-(1-Methyl-2,2-dioxo-2,3-dihydro-1H-benzo[c]isothiazol-5-yl)-[1,6]naphthyridine-2-carboxylic acid cyclopropylamide]
29 | 6.30 to 7.00 | CN1c2ccc(-c3cncc4ccc(CN)nc34)cc2CS1(=O)=O [Compound 71, C-[8-(1-Methyl-2,2-dioxo-2,3-dihydro-1H-benzo[c]isothiazol-5-yl)-[1,6]naphthyridin-2-yl]-methylamine]
30 | > 8.00 | Cc1cncc2ccc(C(=O)N[C@H](C)c3ccccc3)nc12 [Compound 36, (R)-8-methyl-N-(1-phenylethyl)-1,6-naphthyridine-2-carboxamide]
31 | 7.00 to 8.00 | O=C(c1ccc2cncc(Br)c2n1)N1CCC[C@H]1c1ccc(F)cc1 [Compound 90, (S)-(8-bromo-1,6-naphthyridin-2-yl)(2-(4-fluorophenyl)pyrrolidin-1-yl)methanone]
32 | 7.00 to 8.00 | O=C(c1ccc2cnccc2c1)N1CCC[C@H]1c1ccccc1 [Compound 122, (S)-isoquinolin-6-yl(2-phenylpyrrolidin-1-yl)methanone]
33 | 7.00 to 8.00 | Nc1ncc(-c2ccc3c(c2)CS(=O)(=O)N3)c2nc(C(=O)N3CCC(F)(F)C3)ccc12 [Compound 50, (5-Amino-8-(2,2-dioxido-1,3-dihydrobenzo[c]isothiazol-5-yl)-1,6-naphthyridin-2-yl)(3,3-difluoropyrrolidin-1-yl)methanone]
34 | 7.00 to 8.00 | O=C(c1ccc2cncc(Br)c2n1)N1CCC[C@H]1c1ccc(Br)cc1 [Compound 89, (S)-(8-bromo-1,6-naphthyridin-2-yl)(2-(4-bromophenyl)pyrrolidin-1-yl)methanone]
35 | > 8.00 | Nc1ncc(-c2ccc3c(c2)CS(=O)(=O)N3)c2cc(C(=O)N3CCC3)ccc12 [Compound 194, (1-amino-4-(2,2-dioxido-1,3-dihydrobenzo[c]isothiazol-5-yl)isoquinolin-6-yl)(azetidin-1-yl)methanone]
36 | 7.00 to 8.00 | Cn1cc(-c2ccc(-c3cncc4ccc(S(C)(=O)=O)cc34)cc2)cn1 [Compound 189, 6-Methanesulfonyl-4-[4-(1-methyl-1H-pyrazol-4-yl)-phenyl]-isoquinoline]
37 | > 8.00 | CNC(=O)c1ccc2cncc(-c3ccc4c(c3)N(C)C(=O)C4)c2n1 [Compound 15, 8-(1-methyl-2-oxo-2,3-dihydro-1H-indol-6-yl)-[1,6]naphthyridine-2-carboxylic acid methylamide]
